In patent US20250230193A1, “CYCLIC COMPOUND HAVING SELECTIVE KRAS INHIBITORY EFFECT ON HRAS AND NRAS” (CHUGAI SEIYAKU KABUSHIKI KAISHA, priority 2022, published 2025):

Tests used:
[1] = biological target: GDP-bound HRAS wild-type protein (Homo sapiens, UniProt P01112); assay: Binding to HRAS by surface plasmon resonance (SPR), Single Cycle Kinetics; details: KD ratio, GDP-bound HRAS wild-type vs GDP-bound KRAS wild-type, SPR
[2] = biological target: GDP-bound NRAS wild-type protein (Homo sapiens, UniProt P01111); assay: Binding to NRAS by surface plasmon resonance (SPR), Single Cycle Kinetics; details: KD ratio, GDP-bound NRAS wild-type vs GDP-bound KRAS wild-type, SPR
Sequence of GDP-bound NRAS wild-type protein (P01111 whole entry): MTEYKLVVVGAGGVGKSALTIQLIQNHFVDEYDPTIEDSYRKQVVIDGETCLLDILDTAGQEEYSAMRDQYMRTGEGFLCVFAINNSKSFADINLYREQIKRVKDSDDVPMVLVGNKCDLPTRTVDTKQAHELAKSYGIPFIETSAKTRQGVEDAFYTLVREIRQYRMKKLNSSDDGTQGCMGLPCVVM

Sequence of GDP-bound HRAS wild-type protein (P01112 whole entry): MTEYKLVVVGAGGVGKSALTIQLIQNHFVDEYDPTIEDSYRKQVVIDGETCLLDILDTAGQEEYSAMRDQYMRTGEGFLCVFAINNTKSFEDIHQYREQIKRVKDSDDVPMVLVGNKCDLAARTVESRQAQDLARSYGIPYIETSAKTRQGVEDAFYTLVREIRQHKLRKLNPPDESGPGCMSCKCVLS

| Compound | HRAS/KRAS (ratio of KD value for HRAS to KD value for KRAS) [1] | NRAS/KRAS (ratio of KD value for NRAS to KD value for KRAS) [2] |
| --- | --- | --- |
| CCO[C@@H]1C[C@H]2C(=O)NC3(CC(F)(F)C3)C(=O)N(C)[C@@H](C3CCCC3)C(=O)N(C)[C@H](C(=O)N(C)C)CC(=O)N(C)[C@@H](CC(C)C)C(=O)N[C@@H]([C@@H](C)CC)C(=O)N(C)CC(=O)N(C)[C@H]3C/C=C\CCN(C3=O)[C@@H](Cc3ccc(C(F)(F)F)cc3)C(=O)N(C)CC(=O)N[C@@H](CCc3cc(F)c(C(F)(F)F)c(F)c3)C(=O)N2C1 [PP1741] | B (a compound having 3 or more and less than 10 is denoted as B) | A (a compound having 10 or more and less than 20 is denoted as A) |
| CCO[C@@H]1C[C@H]2C(=O)NC3(CC(F)(F)C3)C(=O)N(C)[C@@H](C3CCCC3)C(=O)N(C)[C@H](C(=O)N(C)C)CC(=O)N(C)[C@@H](CC3CCC3)C(=O)N[C@@H]([C@@H](C)CC)C(=O)N(C)CC(=O)N(C)[C@H]3C/C=C\CCN(C3=O)[C@@H](Cc3ccc(C(F)(F)F)cc3)C(=O)N(C)CC(=O)N[C@@H](CCc3cc(F)c(C(F)(F)F)c(F)c3)C(=O)N2C1 [PP1742] | A (a compound having 10 or more and less than 20 is denoted as A) | A (a compound having 10 or more and less than 20 is denoted as A) |
| CCCN(C)C(=O)[C@@H]1CC(=O)N(C)[C@@H](COC)C(=O)N[C@@H]([C@@H](C)CC)C(=O)N(C)CC(=O)N(C)[C@H]2C/C=C\CCN(C2=O)[C@@H](Cc2ccc(C(F)(F)F)cc2)C(=O)N(C)CC(=O)N[C@@H](CCc2cc(F)c(C(F)(F)F)c(F)c2)C(=O)N2C[C@H](OCC)C[C@H]2C(=O)NC2(CC(F)(F)C2)C(=O)N(C)[C@@H](C2CCCC2)C(=O)N1C [PP1743] | A (a compound having 10 or more and less than 20 is denoted as A) | AA (a compound having 20 or more is denoted as AA) |
| CCCOC[C@H]1C(=O)N[C@@H]([C@@H](C)CC)C(=O)N(C)CC(=O)N(C)[C@H]2C/C=C\CCN(C2=O)[C@@H](Cc2ccc(C(F)(F)F)cc2)C(=O)N(C)CC(=O)N[C@@H](CCc2cc(F)c(C(F)(F)F)c(F)c2)C(=O)N2C[C@H](OCC)C[C@H]2C(=O)NC2(CC(F)(F)C2)C(=O)N(C)[C@@H](C2CCCC2)C(=O)N(C)[C@H](C(=O)N(C)CCC)CC(=O)N1C [PP1744] | A (a compound having 10 or more and less than 20 is denoted as A) | A (a compound having 10 or more and less than 20 is denoted as A) |
| CCO[C@@H]1C[C@H]2C(=O)NC3(CC(C)(C)C3)C(=O)N(C)[C@@H](C3CCCC3)C(=O)N(C)[C@H](C(=O)N(C)C)CC(=O)N(C)[C@@H](CC)C(=O)N[C@@H]([C@@H](C)CC)C(=O)N(C)CC(=O)N(C)[C@H]3C/C=C\CCN(C3=O)[C@@H](Cc3ccc(C(F)(F)F)cc3)C(=O)N(C)CC(=O)N[C@@H](CCc3ccc(C(F)(F)F)c(Cl)c3)C(=O)N2C1 [PP1746] | A (a compound having 10 or more and less than 20 is denoted as A) | A (a compound having 10 or more and less than 20 is denoted as A) |
| CCO[C@@H]1C[C@H]2C(=O)NC3(CC(C)(C)C3)C(=O)N(C)[C@@H](C3CCCC3)C(=O)N(C)[C@H](C(=O)N(C)C)CC(=O)N(C)[C@@H](CC(F)F)C(=O)N[C@@H]([C@@H](C)CC)C(=O)N(C)CC(=O)N(C)[C@H]3C/C=C\CCN(C3=O)[C@@H](Cc3ccc(C(F)(F)F)cc3)C(=O)N(C)CC(=O)N[C@@H](CCc3ccc(C(F)(F)F)c(Cl)c3)C(=O)N2C1 [PP1747] | A (a compound having 10 or more and less than 20 is denoted as A) | A (a compound having 10 or more and less than 20 is denoted as A) |
| CCC[C@H]1C(=O)N[C@@H]([C@@H](C)CC)C(=O)N(C)CC(=O)N(C)[C@H]2C/C=C\CCN(C2=O)[C@@H](Cc2ccc(C(F)(F)F)cc2)C(=O)N(C)CC(=O)N[C@@H](CCc2ccc(C(F)(F)F)c(Cl)c2)C(=O)N2C[C@H](OCC)C[C@H]2C(=O)NC2(CC(C)(C)C2)C(=O)N(C)[C@@H](C2CCCC2)C(=O)N(C)[C@H](C(=O)N(C)C)CC(=O)N1C [PP1748] | B (a compound having 3 or more and less than 10 is denoted as B) | A (a compound having 10 or more and less than 20 is denoted as A) |
| CCO[C@@H]1C[C@H]2C(=O)NC3(CC(C)(C)C3)C(=O)N(C)[C@@H](C3CCCC3)C(=O)N(C)[C@H](C(=O)N(C)C)CC(=O)N(C)[C@@H](CC3CC3)C(=O)N[C@@H]([C@@H](C)CC)C(=O)N(C)CC(=O)N(C)[C@H]3C/C=C\CCN(C3=O)[C@@H](Cc3ccc(C(F)(F)F)cc3)C(=O)N(C)CC(=O)N[C@@H](CCc3ccc(C(F)(F)F)c(Cl)c3)C(=O)N2C1 [PP1749] | A (a compound having 10 or more and less than 20 is denoted as A) | A (a compound having 10 or more and less than 20 is denoted as A) |
| CCCC[C@H]1C(=O)N[C@@H]([C@@H](C)CC)C(=O)N(C)CC(=O)N(C)[C@H]2C/C=C\CCN(C2=O)[C@@H](Cc2ccc(C(F)(F)F)cc2)C(=O)N(C)CC(=O)N[C@@H](CCc2ccc(C(F)(F)F)c(Cl)c2)C(=O)N2C[C@H](OCC)C[C@H]2C(=O)NC2(CC(C)(C)C2)C(=O)N(C)[C@@H](C2CCCC2)C(=O)N(C)[C@H](C(=O)N(C)C)CC(=O)N1C [PP1750] | B (a compound having 3 or more and less than 10 is denoted as B) | A (a compound having 10 or more and less than 20 is denoted as A) |
| CCO[C@@H]1C[C@H]2C(=O)NC3(CC(C)(C)C3)C(=O)N(C)[C@@H](C3CCCC3)C(=O)N(C)[C@H](C(=O)N(C)C)CC(=O)N(C)[C@@H](CC(C)C)C(=O)N[C@@H]([C@@H](C)CC)C(=O)N(C)CC(=O)N(C)[C@H]3C/C=C\CCN(C3=O)[C@@H](Cc3ccc(C(F)(F)F)cc3)C(=O)N(C)CC(=O)N[C@@H](CCc3ccc(C(F)(F)F)c(Cl)c3)C(=O)N2C1 [PP1751] | A (a compound having 10 or more and less than 20 is denoted as A) | A (a compound having 10 or more and less than 20 is denoted as A) |
| CCO[C@@H]1C[C@H]2C(=O)NC3(CC(C)(C)C3)C(=O)N(C)[C@@H](C3CCCC3)C(=O)N(C)[C@H](C(=O)N(C)C)CC(=O)N(C)[C@@H](CC3CCC3)C(=O)N[C@@H]([C@@H](C)CC)C(=O)N(C)CC(=O)N(C)[C@H]3C/C=C\CCN(C3=O)[C@@H](Cc3ccc(C(F)(F)F)cc3)C(=O)N(C)CC(=O)N[C@@H](CCc3ccc(C(F)(F)F)c(Cl)c3)C(=O)N2C1 [PP1752] | A (a compound having 10 or more and less than 20 is denoted as A) | A (a compound having 10 or more and less than 20 is denoted as A) |
| CCO[C@@H]1C[C@H]2C(=O)NC3(CC(C)(C)C3)C(=O)N(C)[C@@H](C3CCCC3)C(=O)N(C)[C@H](C(=O)N(C)C)CC(=O)N(C)[C@@H](COC)C(=O)N[C@@H]([C@@H](C)CC)C(=O)N(C)CC(=O)N(C)[C@H]3C/C=C\CCN(C3=O)[C@@H](Cc3ccc(C(F)(F)F)cc3)C(=O)N(C)CC(=O)N[C@@H](CCc3ccc(C(F)(F)F)c(Cl)c3)C(=O)N2C1 [PP1753] | A (a compound having 10 or more and less than 20 is denoted as A) | A (a compound having 10 or more and less than 20 is denoted as A) |
| CCCOC[C@H]1C(=O)N[C@@H]([C@@H](C)CC)C(=O)N(C)CC(=O)N(C)[C@H]2C/C=C\CCN(C2=O)[C@@H](Cc2ccc(C(F)(F)F)cc2)C(=O)N(C)CC(=O)N[C@@H](CCc2ccc(C(F)(F)F)c(Cl)c2)C(=O)N2C[C@H](OCC)C[C@H]2C(=O)NC2(CC(C)(C)C2)C(=O)N(C)[C@@H](C2CCCC2)C(=O)N(C)[C@H](C(=O)N(C)C)CC(=O)N1C [PP1754] | A (a compound having 10 or more and less than 20 is denoted as A) | A (a compound having 10 or more and less than 20 is denoted as A) |
| CCCN(C)C(=O)[C@@H]1CC(=O)N(C)[C@@H](CC(F)F)C(=O)N[C@@H]([C@@H](C)CC)C(=O)N(C)CC(=O)N(C)[C@H]2C/C=C\CCN(C2=O)[C@@H](Cc2ccc(C(F)(F)F)cc2)C(=O)N(C)CC(=O)N[C@@H](CCc2cc(F)c(Cl)c(F)c2)C(=O)N2C[C@H](OCC)C[C@H]2C(=O)NC2(CC(C)(C)C2)C(=O)N(C)[C@@H](C2CCCC2)C(=O)N1C [PP1757] | A (a compound having 10 or more and less than 20 is denoted as A) | AA (a compound having 20 or more is denoted as AA) |
| CCC[C@H]1C(=O)N[C@@H]([C@@H](C)CC)C(=O)N(C)CC(=O)N(C)[C@H]2C/C=C\CCN(C2=O)[C@@H](Cc2ccc(C(F)(F)F)cc2)C(=O)N(C)CC(=O)N[C@@H](CCc2cc(F)c(Cl)c(F)c2)C(=O)N2C[C@H](OCC)C[C@H]2C(=O)NC2(CC(C)(C)C2)C(=O)N(C)[C@@H](C2CCCC2)C(=O)N(C)[C@H](C(=O)N(C)C)CC(=O)N1C [PP1758] | A (a compound having 10 or more and less than 20 is denoted as A) | AA (a compound having 20 or more is denoted as AA) |
| CCO[C@@H]1C[C@H]2C(=O)NC3(CC(C)(C)C3)C(=O)N(C)[C@@H](C3CCCC3)C(=O)N(C)[C@H](C(=O)N(C)C)CC(=O)N(C)[C@@H](CC3CC3)C(=O)N[C@@H]([C@@H](C)CC)C(=O)N(C)CC(=O)N(C)[C@H]3C/C=C\CCN(C3=O)[C@@H](Cc3ccc(C(F)(F)F)cc3)C(=O)N(C)CC(=O)N[C@@H](CCc3cc(F)c(Cl)c(F)c3)C(=O)N2C1 [PP1759] | A (a compound having 10 or more and less than 20 is denoted as A) | A (a compound having 10 or more and less than 20 is denoted as A) |
